From PubChem BioAssay AID248 (DTP/NCI, 2004)
Values joined by “and” are separate entries in the source; they are usually repeats but may differ in a detail not shown here. Equal values may be shown once. Inconclusive results and toxic doses are left out.

System: L1210 leukemia ip in BDF1 mice, survival T/C
Experiment: NCI In Vivo Anticancer Drug Screen. Data for tumor model L1210 Leukemia (intraperitoneal) in B6D2F1 (BDF1) mice
Conditions: higher = longer survival
Procedure, shortened: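 Survival endpoint. Drug-treated group vs vehicle group, expressed as T divided by C. Tumor passaged by transplantation.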

Question: Which results are given for Oc1cc(CN(CCCl)CCCl)c(O)cc1CN(CCCl)CCCl?
Answer: T/C (endpoint: mean survival time, dose: 0.06 mg/kg/injection, schedule: Q#A X Z (ip), vehicle: saline): 118 % of control; T/C (endpoint: mean survival time, dose: 0.13 mg/kg/injection, schedule: Q01DX Z (ip), vehicle: saline): 120 % of control; T/C (endpoint: mean survival time, dose: 0.25 mg/kg/injection, schedule: Q01DX001 (ip), vehicle: saline): 111 % of control; T/C (endpoint: mean survival time, dose: 0.25 mg/kg/injection, schedule: Q01DX Z (ip), vehicle: saline): 122 % of control; T/C (endpoint: mean survival time, dose: 0.25 mg/kg/injection, schedule: Q07DX003 (ip), vehicle: saline): 158 % of control; T/C (endpoint: mean survival time, dose: 0.5 mg/kg/injection, schedule: Q01DX001 (ip), vehicle: saline): 104 % of control; T/C (endpoint: mean survival time, dose: 0.5 mg/kg/injection, schedule: Q01DX010 (ip), vehicle: saline): 121 % of control; T/C (endpoint: mean survival time, dose: 0.5 mg/kg/injection, schedule: Q07DX003 (ip), vehicle: saline): 104 % of control; T/C (endpoint: mean survival time, dose: 0.5 mg/kg/injection, schedule: Q#A X Z (ip), vehicle: saline): 122 % of control; T/C (endpoint: mean survival time, dose: 1.0 mg/kg/injection, schedule: Q01DX001 (ip), vehicle: saline): 107 % of control and 113 % of control; T/C (endpoint: mean survival time, dose: 1.25 mg/kg/injection, schedule: Q01DX009 (ip), vehicle: saline): 107 % of control and 118 % of control; T/C (endpoint: mean survival time, dose: 2.0 mg/kg/injection, schedule: Q01DX001 (ip), vehicle: saline): 111 % of control and 120 % of control; T/C (endpoint: mean survival time, dose: 2.0 mg/kg/injection, schedule: Q01DX006 (iv), vehicle: saline): 114 % of control; T/C (endpoint: mean survival time, dose: 2.0 mg/kg/injection, schedule: Q01DX Z (im), vehicle: saline): 108 % of control; T/C (endpoint: mean survival time, dose: 2.0 mg/kg/injection, schedule: Q01DX Z (sc), vehicle: saline): 108 % of control; T/C (endpoint: mean survival time, dose: 2.5 mg/kg/injection, schedule: Q01DX009 (ip), vehicle: saline): 119 % of control; T/C (endpoint: mean survival time, dose: 3.0 mg/kg/injection, schedule: Q03DX006 (ip), vehicle: saline): 106 % of control; T/C (endpoint: mean survival time, dose: 4.0 mg/kg/injection, schedule: Q01DX001 (ip), vehicle: saline): 108 % of control; T/C (endpoint: mean survival time, dose: 4.0 mg/kg/injection, schedule: Q01DX006 (iv), vehicle: saline): 117 % of control; T/C (endpoint: mean survival time, dose: 4.0 mg/kg/injection, schedule: Q01DX010 (ip), vehicle: saline): 119 % of control; T/C (endpoint: mean survival time, dose: 4.0 mg/kg/injection, schedule: Q01DX Z (im), vehicle: saline): 120 % of control; T/C (endpoint: mean survival time, dose: 4.0 mg/kg/injection, schedule: Q01DX Z (sc), vehicle: saline): 114 % of control; T/C (endpoint: mean survival time, dose: 5.0 mg/kg/injection, schedule: Q01DX009 (ip), vehicle: saline): 122 % of control; T/C (endpoint: mean survival time, dose: 5.0 mg/kg/injection, schedule: Q01DX010 (ip), vehicle: saline): 117 % of control; T/C (endpoint: mean survival time, dose: 8.0 mg/kg/injection, schedule: Q01DX001 (ip), vehicle: saline): 104 % of control and 113 % of control; T/C (endpoint: mean survival time, dose: 8.0 mg/kg/injection, schedule: Q01DX006 (iv), vehicle: saline): 123 % of control; T/C (endpoint: mean survival time, dose: 8.0 mg/kg/injection, schedule: Q01DX Z (im), vehicle: saline): 108 % of control; T/C (endpoint: mean survival time, dose: 8.0 mg/kg/injection, schedule: Q01DX Z (oral), vehicle: saline): 117 % of control; T/C (endpoint: mean survival time, dose: 8.0 mg/kg/injection, schedule: Q01DX Z (sc), vehicle: saline): 111 % of control; T/C (endpoint: mean survival time, dose: 8.0 mg/kg/injection, schedule: Q#A X Z (ip), vehicle: saline): 102 % of control; T/C (endpoint: mean survival time, dose: 10.0 mg/kg/injection, schedule: Q01DX009 (ip), vehicle: saline): 93 % of control and 96 % of control; T/C (endpoint: mean survival time, dose: 10.0 mg/kg/injection, schedule: Q01DX010 (ip), vehicle: saline): 89 % of control; T/C (endpoint: mean survival time, dose: 16.0 mg/kg/injection, schedule: Q01DX001 (ip), vehicle: saline): 122 % of control and 124 % of control; T/C (endpoint: mean survival time, dose: 16.0 mg/kg/injection, schedule: Q01DX006 (iv), vehicle: saline): 123 % of control; T/C (endpoint: mean survival time, dose: 16.0 mg/kg/injection, schedule: Q01DX Z (im), vehicle: saline): 117 % of control; T/C (endpoint: mean survival time, dose: 16.0 mg/kg/injection, schedule: Q01DX Z (ip), vehicle: saline): 103 % of control; T/C (endpoint: mean survival time, dose: 16.0 mg/kg/injection, schedule: Q01DX Z (oral), vehicle: saline): 109 % of control; T/C (endpoint: mean survival time, dose: 16.0 mg/kg/injection, schedule: Q01DX Z (sc), vehicle: saline): 120 % of control; T/C (endpoint: mean survival time, dose: 16.0 mg/kg/injection, schedule: Q07DX003 (ip), vehicle: saline): 114 % of control; T/C (endpoint: mean survival time, dose: 24.0 mg/kg/injection, schedule: Q03DX006 (ip), vehicle: saline): 124 % of control; T/C (endpoint: mean survival time, dose: 32.0 mg/kg/injection, schedule: Q01DX001 (ip), vehicle: saline): 120 % of control; T/C (endpoint: mean survival time, dose: 32.0 mg/kg/injection, schedule: Q01DX Z (im), vehicle: saline): 93 % of control; T/C (endpoint: mean survival time, dose: 32.0 mg/kg/injection, schedule: Q01DX Z (oral), vehicle: saline): 111 % of control; T/C (endpoint: mean survival time, dose: 32.0 mg/kg/injection, schedule: Q01DX Z (sc), vehicle: saline): 110 % of control; T/C (endpoint: mean survival time, dose: 48.0 mg/kg/injection, schedule: Q03DX006 (ip), vehicle: saline): 104 % of control; T/C (endpoint: mean survival time, dose: 64.0 mg/kg/injection, schedule: Q01DX001 (ip), vehicle: saline): 108 % of control and 110 % of control; T/C (endpoint: mean survival time, dose: 64.0 mg/kg/injection, schedule: Q01DX Z (im), vehicle: saline): 95 % of control; T/C (endpoint: mean survival time, dose: 64.0 mg/kg/injection, schedule: Q01DX Z (oral), vehicle: saline): 105 % of control; T/C (endpoint: mean survival time, dose: 64.0 mg/kg/injection, schedule: Q01DX Z (sc), vehicle: saline): 87 % of control; T/C (endpoint: mean survival time, dose: 64.0 mg/kg/injection, schedule: Q07DX003 (ip), vehicle: saline): 106 % of control; T/C (endpoint: mean survival time, dose: 128.0 mg/kg/injection, schedule: Q01DX001 (ip), vehicle: saline): 108 % of control and 114 % of control; T/C (endpoint: mean survival time, dose: 256.0 mg/kg/injection, schedule: Q01DX001 (ip), vehicle: saline): 119 % of control; T/C (endpoint: mean survival time, dose: 16.0 micrograms/kg/injection, schedule: Q03DX003 (ip), vehicle: saline): 104 % of control; T/C (endpoint: mean survival time, dose: 32.0 micrograms/kg/injection, schedule: Q03DX003 (ip), vehicle: saline): 98 % of control; T/C (endpoint: mean survival time, dose: 37.5 micrograms/kg/injection, schedule: Q07DX002 (ip), vehicle: saline): 102 % of control; T/C (endpoint: mean survival time, dose: 62.5 micrograms/kg/injection, schedule: Q03DX003 (ip), vehicle: saline): 107 % of control; T/C (endpoint: mean survival time, dose: 75.0 micrograms/kg/injection, schedule: Q07DX002 (ip), vehicle: saline): 101 % of control; T/C (endpoint: mean survival time, dose: 125.0 micrograms/kg/injection, schedule: Q03DX003 (ip), vehicle: saline): 102 % of control; T/C (endpoint: mean survival time, dose: 150.0 micrograms/kg/injection, schedule: Q07DX002 (ip), vehicle: saline): 104 % of control; T/C (endpoint: mean survival time, dose: 300.0 micrograms/kg/injection, schedule: Q07DX002 (ip), vehicle: saline): 102 % of control; T/C (endpoint: median survival time, dose: 1.25 mg/kg/injection, schedule: Q01DX009 (ip), vehicle: saline): 157 % of control; T/C (endpoint: median survival time, dose: 5.0 mg/kg/injection, schedule: Q01DX009 (ip), vehicle: saline): 122 % of control; T/C (endpoint: median survival time, dose: 10.0 mg/kg/injection, schedule: Q01DX009 (ip), vehicle: saline): 105 % of control and 114 % of control

Question: How did the T/C (endpoint: mean survival time, dose: 75.0 mg/kg/injection, schedule: Q04DX003 (ip), vehicle: Klucel (hydroxypropylcellulose) (HPC)) turn out when O=C(/C=C/C(=O)c1ccccc1)c1ccccc1 was run?
Answer: 98 % of control

Question: What about the T/C (endpoint: mean survival time, dose: 100.0 mg/kg/injection, schedule: Q04DX002 (ip), vehicle: Klucel (hydroxypropylcellulose) (HPC)) of the same compound?
Answer: 98 % of control

Question: What about the T/C (endpoint: mean survival time, dose: 150.0 mg/kg/injection, schedule: Q04DX003 (ip), vehicle: Klucel (hydroxypropylcellulose) (HPC)) of the same compound?
Answer: 97 % of control

Question: And the T/C (endpoint: mean survival time, dose: 200.0 mg/kg/injection, schedule: Q04DX002 (ip), vehicle: Klucel (hydroxypropylcellulose) (HPC))?
Answer: 106 % of control

Question: What about the T/C (endpoint: mean survival time, dose: 300.0 mg/kg/injection, schedule: Q04DX003 (ip), vehicle: Klucel (hydroxypropylcellulose) (HPC)) of the same compound?
Answer: 104 % of control

Question: O=Nn1cc(-c2cc3ccccc3n2N=O)c2ccccc21 was tested. Which T/C (endpoint: mean survival time, dose: 50.0 mg/kg/injection, schedule: Q01DX001 (ip), vehicle: saline) did it give?
Answer: 102 % of control

Question: And the T/C (endpoint: mean survival time, dose: 100.0 mg/kg/injection, schedule: Q01DX001 (ip), vehicle: saline)?
Answer: 93 % of control

Question: And the T/C (endpoint: mean survival time, dose: 200.0 mg/kg/injection, schedule: Q01DX001 (ip), vehicle: saline)?
Answer: 96 % of control

Question: What about the T/C (endpoint: mean survival time, dose: 400.0 mg/kg/injection, schedule: Q01DX001 (ip), vehicle: saline) of the same compound?
Answer: 96 % of control

Question: CCCC(CCC)NC(CC)COC(=O)c1ccc(N)cc1 (configuration not stated) was tested. Which T/C (endpoint: mean survival time, dose: 75.0 mg/kg/injection, schedule: Q01DX001 (ip), vehicle: other) did it give?
Answer: 97 % of control

Question: CC(=O)c1ccccc1-n1c(C)ccc1C was tested. Which T/C (endpoint: mean survival time, dose: 100.0 mg/kg/injection, schedule: Q01DX009 (ip), vehicle: saline) did it give?
Answer: 95 % of control

Question: And the T/C (endpoint: mean survival time, dose: 100.0 mg/kg/injection, schedule: Q04DX003 (ip), vehicle: saline + alcohol)?
Answer: 100 % of control

Question: What about the T/C (endpoint: mean survival time, dose: 200.0 mg/kg/injection, schedule: Q01DX009 (ip), vehicle: saline) of the same compound?
Answer: 98 % of control

Question: And the T/C (endpoint: mean survival time, dose: 200.0 mg/kg/injection, schedule: Q04DX003 (ip), vehicle: saline + alcohol)?
Answer: 100 % of control

Question: And the T/C (endpoint: mean survival time, dose: 400.0 mg/kg/injection, schedule: Q01DX009 (ip), vehicle: saline)?
Answer: 98 % of control

Question: What about the T/C (endpoint: mean survival time, dose: 400.0 mg/kg/injection, schedule: Q04DX003 (ip), vehicle: saline + alcohol) of the same compound?
Answer: 108 % of control

Question: How did the T/C (endpoint: mean survival time, dose: 100.0 mg/kg/injection, schedule: Q04DX003 (ip), vehicle: Klucel (hydroxypropylcellulose) (HPC)) turn out when NC(=O)c1c(Cl)cccc1Cl was run?
Answer: 111 % of control

Question: And the T/C (endpoint: mean survival time, dose: 200.0 mg/kg/injection, schedule: Q04DX003 (ip), vehicle: Klucel (hydroxypropylcellulose) (HPC))?
Answer: 101 % of control

Question: And the T/C (endpoint: mean survival time, dose: 400.0 mg/kg/injection, schedule: Q04DX003 (ip), vehicle: Klucel (hydroxypropylcellulose) (HPC))?
Answer: 101 % of control
